Measurements: ChEMBL document CHEMBL5465560, “Selectivity Literature for EUbOPEN Chemogenomic Library” (2024)

Experiments:
[1] = target: 5-hydroxytryptamine receptor 7 (Homo sapiens) (UniProt P34969); experiment: Selectivity interaction (GPCR panel (PDSP screen)) EUB0001079a HTR7; details: at 10 µM
[2] = target: T1, NUAK family SNF1-like kinase 1 (Homo sapiens) (UniProt O60285); experiment: Selectivity interaction (KinomeScan (DiscoverX)) EUB0001079a NUAK1; details: at 1 µM
T1 sequence (whole entry): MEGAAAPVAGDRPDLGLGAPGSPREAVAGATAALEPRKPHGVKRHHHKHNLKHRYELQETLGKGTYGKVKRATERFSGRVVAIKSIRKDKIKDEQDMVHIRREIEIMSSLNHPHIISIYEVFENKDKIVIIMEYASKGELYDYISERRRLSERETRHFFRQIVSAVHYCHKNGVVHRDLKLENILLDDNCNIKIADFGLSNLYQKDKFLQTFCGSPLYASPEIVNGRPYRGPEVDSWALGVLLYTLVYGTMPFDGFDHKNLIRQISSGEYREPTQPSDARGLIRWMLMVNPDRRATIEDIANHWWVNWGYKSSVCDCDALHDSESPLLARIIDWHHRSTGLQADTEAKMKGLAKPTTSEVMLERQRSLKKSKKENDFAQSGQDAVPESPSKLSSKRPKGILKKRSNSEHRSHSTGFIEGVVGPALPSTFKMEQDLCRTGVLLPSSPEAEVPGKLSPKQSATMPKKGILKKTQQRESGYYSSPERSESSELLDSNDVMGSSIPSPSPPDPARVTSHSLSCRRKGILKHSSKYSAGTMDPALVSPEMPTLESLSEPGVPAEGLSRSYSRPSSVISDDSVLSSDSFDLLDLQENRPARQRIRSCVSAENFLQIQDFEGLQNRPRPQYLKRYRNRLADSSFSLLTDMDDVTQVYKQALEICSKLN

[3] = target: Casein kinase II subunit alpha (Homo sapiens, UniProt P68400); experiment: Selectivity interaction (Kinase screening (Upstate/Millipore)) EUB0000604a CSNK2A1
Casein kinase II subunit alpha, sequence (P68400 whole entry, looked up): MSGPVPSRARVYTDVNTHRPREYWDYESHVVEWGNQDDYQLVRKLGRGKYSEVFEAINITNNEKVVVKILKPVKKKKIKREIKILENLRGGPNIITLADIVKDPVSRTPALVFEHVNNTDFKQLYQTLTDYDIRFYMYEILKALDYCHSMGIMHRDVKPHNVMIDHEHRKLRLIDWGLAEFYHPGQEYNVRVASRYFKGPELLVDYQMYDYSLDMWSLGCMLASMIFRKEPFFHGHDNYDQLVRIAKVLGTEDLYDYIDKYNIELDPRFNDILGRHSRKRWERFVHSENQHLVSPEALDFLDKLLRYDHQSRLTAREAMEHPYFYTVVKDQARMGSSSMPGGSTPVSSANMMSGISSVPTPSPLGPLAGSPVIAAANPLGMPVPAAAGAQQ

[4] = target: Growth hormone secretagogue receptor type 1 (Homo sapiens, UniProt Q92847); experiment: Selectivity interaction (Ghrelin receptor binding assay, human recombinant ) EUB0000877a […]
Growth hormone secretagogue receptor type 1, sequence (Q92847 whole entry): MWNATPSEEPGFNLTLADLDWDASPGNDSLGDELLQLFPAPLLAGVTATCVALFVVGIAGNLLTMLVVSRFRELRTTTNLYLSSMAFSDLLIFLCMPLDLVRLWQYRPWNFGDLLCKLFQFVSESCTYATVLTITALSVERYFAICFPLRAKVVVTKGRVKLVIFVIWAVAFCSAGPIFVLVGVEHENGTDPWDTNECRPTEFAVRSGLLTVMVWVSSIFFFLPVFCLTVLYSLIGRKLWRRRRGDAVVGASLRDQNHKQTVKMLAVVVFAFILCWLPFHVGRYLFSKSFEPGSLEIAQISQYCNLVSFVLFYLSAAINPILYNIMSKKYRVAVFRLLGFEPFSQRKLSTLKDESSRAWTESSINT

[5] = target: T2, Mitogen-activated protein kinase kinase kinase kinase 2 (Homo sapiens) (UniProt Q12851); experiment: Selectivity interaction (ActivX KiNativ screen (ex vivo kinase selectivity in human PBMCs)) EUB0001619a MAP4K2; type: cell-based; details: PBMC, at 1 µM
T2 sequence (whole entry): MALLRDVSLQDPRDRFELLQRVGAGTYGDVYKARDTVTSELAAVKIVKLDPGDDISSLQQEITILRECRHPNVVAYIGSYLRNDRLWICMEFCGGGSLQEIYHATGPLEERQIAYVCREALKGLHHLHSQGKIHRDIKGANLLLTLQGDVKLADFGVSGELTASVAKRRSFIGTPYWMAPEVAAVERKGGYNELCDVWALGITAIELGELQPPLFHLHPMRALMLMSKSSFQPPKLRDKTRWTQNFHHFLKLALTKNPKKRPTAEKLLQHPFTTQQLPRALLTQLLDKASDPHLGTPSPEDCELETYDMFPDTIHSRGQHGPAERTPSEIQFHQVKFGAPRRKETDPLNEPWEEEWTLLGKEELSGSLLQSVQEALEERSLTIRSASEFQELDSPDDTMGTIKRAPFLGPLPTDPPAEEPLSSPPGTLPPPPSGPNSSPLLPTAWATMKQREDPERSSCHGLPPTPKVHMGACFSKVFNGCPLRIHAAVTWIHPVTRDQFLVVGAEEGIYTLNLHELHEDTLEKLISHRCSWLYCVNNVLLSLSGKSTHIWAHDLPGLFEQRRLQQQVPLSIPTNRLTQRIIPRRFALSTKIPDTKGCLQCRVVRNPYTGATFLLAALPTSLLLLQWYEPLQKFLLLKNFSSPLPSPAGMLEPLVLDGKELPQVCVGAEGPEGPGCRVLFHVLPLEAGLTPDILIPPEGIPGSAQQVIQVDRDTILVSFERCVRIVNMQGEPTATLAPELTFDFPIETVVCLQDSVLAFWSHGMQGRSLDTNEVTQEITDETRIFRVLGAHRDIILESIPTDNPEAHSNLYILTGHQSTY

[6] = target: 5'-AMP-activated protein kinase catalytic subunit alpha-1 (Homo sapiens, UniProt Q13131); experiment: Selectivity interaction (Kinase panel (Invitrogen)) EUB0000639a PRKAA1; details: at 200 nM
5'-AMP-activated protein kinase catalytic subunit alpha-1, sequence (Q13131 whole entry, looked up): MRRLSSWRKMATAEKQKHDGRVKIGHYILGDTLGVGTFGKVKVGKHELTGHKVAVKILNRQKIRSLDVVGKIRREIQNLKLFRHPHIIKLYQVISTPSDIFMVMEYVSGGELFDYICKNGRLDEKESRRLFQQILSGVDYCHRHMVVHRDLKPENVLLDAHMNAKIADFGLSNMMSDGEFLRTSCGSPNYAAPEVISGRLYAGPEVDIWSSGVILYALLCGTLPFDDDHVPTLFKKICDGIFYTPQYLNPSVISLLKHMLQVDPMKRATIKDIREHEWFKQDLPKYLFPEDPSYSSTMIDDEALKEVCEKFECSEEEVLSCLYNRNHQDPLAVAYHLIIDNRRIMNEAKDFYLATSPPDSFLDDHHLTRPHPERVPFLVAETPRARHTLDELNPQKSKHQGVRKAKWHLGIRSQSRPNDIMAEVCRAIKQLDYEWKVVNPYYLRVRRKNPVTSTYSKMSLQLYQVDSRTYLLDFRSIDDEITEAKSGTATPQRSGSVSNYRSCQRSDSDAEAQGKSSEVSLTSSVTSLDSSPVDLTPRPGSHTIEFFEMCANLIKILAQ

[7] = target: T3, Phosphatidylinositol 5-phosphate 4-kinase type-2 beta (Homo sapiens) (UniProt P78356); details: at 10 µM
T3 sequence (whole entry): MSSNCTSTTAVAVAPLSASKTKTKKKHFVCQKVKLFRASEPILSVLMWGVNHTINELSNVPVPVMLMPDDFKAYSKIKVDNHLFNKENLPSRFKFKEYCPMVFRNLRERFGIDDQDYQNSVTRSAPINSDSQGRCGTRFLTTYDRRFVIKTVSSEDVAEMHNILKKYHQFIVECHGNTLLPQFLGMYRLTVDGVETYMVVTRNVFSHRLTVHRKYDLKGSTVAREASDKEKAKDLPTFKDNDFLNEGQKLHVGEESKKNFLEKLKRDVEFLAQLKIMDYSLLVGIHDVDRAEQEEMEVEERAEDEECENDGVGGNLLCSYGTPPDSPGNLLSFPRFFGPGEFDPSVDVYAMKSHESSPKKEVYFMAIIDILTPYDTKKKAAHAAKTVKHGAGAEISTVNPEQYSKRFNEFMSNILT

[8] = target: Serine/threonine-protein kinase PAK 6 (Homo sapiens) (UniProt Q9NQU5); experiment: Selectivity interaction (Ambit KINOMEscan and KiNATiv profiling in Jurkat cells) EUB0000090b PAK6; type: cell-based; details: at 1 µM
Serine/threonine-protein kinase PAK 6 (Homo sapiens), sequence (Q9NQU5 whole entry, looked up): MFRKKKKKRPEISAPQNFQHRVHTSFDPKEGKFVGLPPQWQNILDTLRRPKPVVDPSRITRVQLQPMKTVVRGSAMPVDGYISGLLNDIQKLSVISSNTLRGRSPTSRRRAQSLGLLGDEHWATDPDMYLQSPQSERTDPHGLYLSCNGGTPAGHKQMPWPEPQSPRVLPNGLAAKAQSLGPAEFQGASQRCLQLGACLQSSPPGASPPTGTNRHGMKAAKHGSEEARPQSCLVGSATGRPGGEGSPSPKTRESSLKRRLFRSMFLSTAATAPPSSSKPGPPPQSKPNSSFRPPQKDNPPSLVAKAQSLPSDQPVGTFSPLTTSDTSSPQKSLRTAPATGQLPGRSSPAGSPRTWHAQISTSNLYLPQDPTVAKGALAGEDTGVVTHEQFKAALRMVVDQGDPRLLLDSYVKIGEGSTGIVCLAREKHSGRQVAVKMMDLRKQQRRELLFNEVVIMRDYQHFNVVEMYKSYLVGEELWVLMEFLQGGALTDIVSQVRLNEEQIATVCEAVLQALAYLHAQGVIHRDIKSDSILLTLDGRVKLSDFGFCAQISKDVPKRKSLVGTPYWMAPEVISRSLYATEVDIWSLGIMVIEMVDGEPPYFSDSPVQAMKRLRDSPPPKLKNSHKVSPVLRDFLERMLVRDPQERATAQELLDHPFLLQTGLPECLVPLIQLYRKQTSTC

5-hydroxytryptamine receptor 7 (Homo sapiens), sequence (P34969 whole entry): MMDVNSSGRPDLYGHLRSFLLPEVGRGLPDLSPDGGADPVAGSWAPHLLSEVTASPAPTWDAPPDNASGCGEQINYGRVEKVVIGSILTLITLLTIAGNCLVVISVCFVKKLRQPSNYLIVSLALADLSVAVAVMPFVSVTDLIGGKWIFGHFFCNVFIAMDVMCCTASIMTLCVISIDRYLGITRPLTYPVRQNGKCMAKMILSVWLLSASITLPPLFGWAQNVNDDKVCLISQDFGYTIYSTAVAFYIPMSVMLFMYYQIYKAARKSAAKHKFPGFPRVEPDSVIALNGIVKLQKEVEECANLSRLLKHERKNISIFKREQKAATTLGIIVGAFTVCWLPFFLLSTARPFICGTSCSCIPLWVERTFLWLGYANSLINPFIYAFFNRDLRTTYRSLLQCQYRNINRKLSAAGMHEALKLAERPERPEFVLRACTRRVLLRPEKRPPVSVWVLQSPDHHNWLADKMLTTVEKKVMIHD

## Nc1cnc(N2CCc3cc(S(=O)(=O)Nc4c(F)cc(Cl)cc4F)cc(N4CCCC4=O)c32)nc1 [TP-020n]
[1]
  % of inhibition: 0.94%
[2]
  % of control: 100%

## Cc1cnc(Nc2ccc(F)cc2Cl)nc1-c1c[nH]c(C(=O)N[C@H](CO)c2cccc(Cl)c2)c1
[3]
  % of inhibition: 0%

## CCC(=O)N1CC[C@H](Nc2ncnc3c2CN(c2cnc(OC)c(C(F)(F)F)c2)CC3)C1 [LENIOLISIB]
[4]
  IC50: > 30 µM

## N#Cc1cccc(-c2c[nH]c3ncnc(N4CCOCC4)c23)c1
[5]
  % of inhibition: 31%

## CC[C@@H]1[C@H](F)C(=O)N[C@@H]1COc1nccc2cc(C(N)=O)c(OC)cc12 [ZIMLOVISERTIB]
[6]
  % of inhibition: 11%

## CCN(CC)CCCCNc1ncc2cc(-c3cc(OC)cc(OC)c3)c(NC(=O)NC(C)(C)C)nc2n1
[7]
  % of control: 100%

## CN(C)C/C=C/C(=O)Nc1ccc(C(=O)N2CCCC(Nc3ncc(Cl)c(-c4c[nH]c5ccccc45)n3)C2)cc1 (stereo not drawn)
[8]
  % of control: 33%
